Source: the supplement of paper PMC10307832

Experiments:
Assay in all cases: relative viability (nuclei count vs DMSO), 5 days (fraction); higher = more cells survive
EMC-BAC-2 = tested on: EMC-BAC-2
How it was run: (§1)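 Lung cancer cell lines were seeded in 1536-well plates and dosed by pin tool the next day, with either a single drug or a fixed anchor-drug dose combined with five library-drug doses (not always all listed) spaced in √10 steps. Five days later, one step fixed the cells and stained their nuclei (final 0.05% Triton X-100, 1% formaldehyde, 1 ug/ml Hoechst), and nuclei were counted on 4× images. Relative viability is the nuclei count in treated wells divided by the count in vehicle wells, and each value is the median of duplicate plates.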

NCI-H1944 = tested on: NCI-H1944
How it was run: as §1

A-427 = tested on: A-427
How it was run: as §1

NCI-H1793 = tested on: NCI-H1793
How it was run: as §1

NCI-H2228 = tested on: NCI-H2228
How it was run: as §1

SW 900 = tested on: SW 900
How it was run: as §1

COR-L23 = tested on: COR-L23
How it was run: as §1

NCI-H1993 = tested on: NCI-H1993
How it was run: as §1

SW 1573 = tested on: SW 1573
How it was run: as §1

PC-3 [JPC-3] = tested on: PC-3 [JPC-3]
How it was run: as §1

ABC-1 = tested on: ABC-1
How it was run: as §1

NCI-H2170 = tested on: NCI-H2170
How it was run: as §1

NCI-H727 = tested on: NCI-H727
How it was run: as §1

HOP-62 = tested on: HOP-62
How it was run: as §1

NCI-H596 = tested on: NCI-H596
How it was run: as §1

NCI-H2009 = tested on: NCI-H2009
How it was run: as §1

LK-2 = tested on: LK-2
How it was run: as §1

NCI-H3122 = tested on: NCI-H3122
How it was run: as §1

SK-LU-1 = tested on: SK-LU-1
How it was run: as §1

SK-MES-1 = tested on: SK-MES-1
How it was run: as §1

LXF-289 = tested on: LXF-289
How it was run: as §1

HARA = tested on: HARA
How it was run: as §1

SMILES: CC1(C)CCC(c2ccc(Cl)cc2)=C(CN2CCN(c3ccc(C(=O)NS(=O)(=O)c4ccc(N[C@H](CCN5CCOCC5)CSc5ccccc5)c(S(=O)(=O)C(F)(F)F)c4)cc3)CC2)C1 [Navitoclax] + O=C(CCCCCCC(=O)Nc1ccccc1)NO [Vorinostat] (partner 1 µM)
- relative viability (EMC-BAC-2; first compound 0.005 µM): 0.413
- relative viability (EMC-BAC-2; first compound 0.01581 µM): 0.507
- relative viability (EMC-BAC-2; first compound 0.05 µM): 0.548
- relative viability (EMC-BAC-2; first compound 0.1581 µM): 0.422
- relative viability (EMC-BAC-2; first compound 0.5 µM): 0.418
- relative viability (NCI-H1944; first compound 0.005 µM): 0.54
- relative viability (NCI-H1944; first compound 0.01581 µM): 0.603
- relative viability (NCI-H1944; first compound 0.1581 µM): 0.457
- relative viability (NCI-H1944; first compound 0.5 µM): 0.578
- relative viability (A-427; first compound 0.005 µM): 0.915
- relative viability (A-427; first compound 0.01581 µM): 0.873
- relative viability (A-427; first compound 0.05 µM): 0.91
- relative viability (A-427; first compound 0.1581 µM): 0.892
- relative viability (A-427; first compound 0.5 µM): 0.838
- relative viability (NCI-H1793; first compound 0.005 µM): 0.744
- relative viability (NCI-H1793; first compound 0.01581 µM): 0.873
- relative viability (NCI-H1793; first compound 0.1581 µM): 0.667
- relative viability (NCI-H1793; first compound 0.5 µM): 0.444
- relative viability (NCI-H2228; first compound 0.005 µM): 1.13
- relative viability (NCI-H2228; first compound 0.01581 µM): 0.639
- relative viability (NCI-H2228; first compound 0.1581 µM): 0.397
- relative viability (NCI-H2228; first compound 0.5 µM): 0.641
- relative viability (SW 900; first compound 0.005 µM): 0.432
- relative viability (SW 900; first compound 0.01581 µM): 0.573
- relative viability (SW 900; first compound 0.1581 µM): 0.478
- relative viability (SW 900; first compound 0.5 µM): 0.365
- relative viability (COR-L23; first compound 0.005 µM): 0.475
- relative viability (COR-L23; first compound 0.01581 µM): 0.535
- relative viability (COR-L23; first compound 0.05 µM): 0.425
- relative viability (COR-L23; first compound 0.1581 µM): 0.386
- relative viability (COR-L23; first compound 0.5 µM): 0.411
- relative viability (NCI-H1993; first compound 0.005 µM): 0.74
- relative viability (NCI-H1993; first compound 0.01581 µM): 0.81
- relative viability (NCI-H1993; first compound 0.05 µM): 1
- relative viability (NCI-H1993; first compound 0.1581 µM): 0.708
- relative viability (NCI-H1993; first compound 0.5 µM): 0.703
- relative viability (SW 1573; first compound 0.005 µM): 0.607
- relative viability (SW 1573; first compound 0.01581 µM): 0.9
- relative viability (SW 1573; first compound 0.05 µM): 0.683
- relative viability (SW 1573; first compound 0.1581 µM): 0.475
- relative viability (SW 1573; first compound 0.5 µM): 0.597
- relative viability (PC-3 [JPC-3]; first compound 0.005 µM): 0.874
- relative viability (PC-3 [JPC-3]; first compound 0.01581 µM): 0.868
- relative viability (PC-3 [JPC-3]; first compound 0.05 µM): 0.877
- relative viability (PC-3 [JPC-3]; first compound 0.1581 µM): 0.817
- relative viability (PC-3 [JPC-3]; first compound 0.5 µM): 0.499
- relative viability (ABC-1; first compound 0.005 µM): 1.22
- relative viability (ABC-1; first compound 0.01581 µM): 1.34
- relative viability (ABC-1; first compound 0.05 µM): 0.725
- relative viability (ABC-1; first compound 0.1581 µM): 1.41
- relative viability (ABC-1; first compound 0.5 µM): 1.04
- relative viability (NCI-H2170; first compound 0.005 µM): 0.818
- relative viability (NCI-H2170; first compound 0.01581 µM): 0.926
- relative viability (NCI-H2170; first compound 0.05 µM): 0.736
- relative viability (NCI-H2170; first compound 0.1581 µM): 0.771
- relative viability (NCI-H2170; first compound 0.5 µM): 0.622
- relative viability (NCI-H727; first compound 0.005 µM): 1.28
- relative viability (NCI-H727; first compound 0.01581 µM): 1.34
- relative viability (NCI-H727; first compound 0.05 µM): 0.901
- relative viability (NCI-H727; first compound 0.1581 µM): 1.12
- relative viability (NCI-H727; first compound 0.5 µM): 1.16
- relative viability (HOP-62; first compound 0.005 µM): 0.669
- relative viability (HOP-62; first compound 0.01581 µM): 0.644
- relative viability (HOP-62; first compound 0.05 µM): 0.618
- relative viability (HOP-62; first compound 0.1581 µM): 0.529
- relative viability (HOP-62; first compound 0.5 µM): 0.842
- relative viability (NCI-H596; first compound 0.005 µM): 0.648
- relative viability (NCI-H596; first compound 0.01581 µM): 0.739
- relative viability (NCI-H596; first compound 0.05 µM): 0.299
- relative viability (NCI-H596; first compound 0.1581 µM): 0.55
- relative viability (NCI-H596; first compound 0.5 µM): 0.496
- relative viability (NCI-H2009; first compound 0.005 µM): 0.719
- relative viability (NCI-H2009; first compound 0.01581 µM): 0.88
- relative viability (NCI-H2009; first compound 0.05 µM): 0.759
- relative viability (NCI-H2009; first compound 0.1581 µM): 0.728
- relative viability (NCI-H2009; first compound 0.5 µM): 0.719
- relative viability (LK-2; first compound 0.005 µM): 0.293
- relative viability (LK-2; first compound 0.01581 µM): 0.33
- relative viability (LK-2; first compound 0.05 µM): 0.367
- relative viability (LK-2; first compound 0.1581 µM): 0.307
- relative viability (LK-2; first compound 0.5 µM): 0.277
- relative viability (NCI-H3122; first compound 0.005 µM): 1.05
- relative viability (NCI-H3122; first compound 0.01581 µM): 0.807
- relative viability (NCI-H3122; first compound 0.05 µM): 1.06
- relative viability (NCI-H3122; first compound 0.1581 µM): 1.02
- relative viability (NCI-H3122; first compound 0.5 µM): 0.839
- relative viability (SK-LU-1; first compound 0.005 µM): 0.787
- relative viability (SK-LU-1; first compound 0.01581 µM): 0.776
- relative viability (SK-LU-1; first compound 0.05 µM): 0.689
- relative viability (SK-LU-1; first compound 0.1581 µM): 0.627
- relative viability (SK-LU-1; first compound 0.5 µM): 0.516
- relative viability (SK-MES-1; first compound 0.005 µM): 1.06
- relative viability (SK-MES-1; first compound 0.01581 µM): 1.42
- relative viability (SK-MES-1; first compound 0.05 µM): 1.15
- relative viability (SK-MES-1; first compound 0.1581 µM): 1.1
- relative viability (SK-MES-1; first compound 0.5 µM): 1.17
- relative viability (LXF-289; first compound 0.005 µM): 0.752
- relative viability (LXF-289; first compound 0.01581 µM): 0.842
- relative viability (LXF-289; first compound 0.05 µM): 0.697
- relative viability (LXF-289; first compound 0.1581 µM): 0.799
- relative viability (LXF-289; first compound 0.5 µM): 0.814
- relative viability (HARA; first compound 0.005 µM): 0.536
- relative viability (HARA; first compound 0.01581 µM): 0.629
- relative viability (HARA; first compound 0.1581 µM): 0.521
- relative viability (HARA; first compound 0.5 µM): 0.55
